Assay results from article PMC11033320, “Activation of p53 signaling and regression of breast and prostate carcinoma cells by spirooxindole-benzimidazole small molecules” (Frontiers in Pharmacology, 2024).

Tests used:
OVCAR-4 = experiment: NCI anticancer screening, Ovarian Cancer OVCAR-4; assay type: cell-based; conditions: Homo sapiens; OVCAR-4, 10 μM; read-out: % Growth Inhibition (GI %)
Description: (§1) The compound has been processed according to standard method NCI-60 Human Tumor Cell Lines Screen for organic compound at development therapeutic program (DTP). Requests for access to this national resource can be submitted online at: […]

CCRF-CEM = experiment: NCI anticancer screening, Leukemia CCRF-CEM; assay type: cell-based; conditions: Homo sapiens, read-out: % Growth Inhibition (GI %)
Description: as §1

HCC-2998 = experiment: NCI anticancer screening, Colon Cancer HCC-2998; assay type: cell-based; conditions: Homo sapiens; HCC-2998, 10 μM; read-out: % Growth Inhibition (GI %)
Description: as §1

[1] = MTT cytotoxicity to normal human lung fibroblast Wi-38 cell line; assay type: cell-based; conditions: Wi-38 normal lung fibroblast cells, mean ± SEM, read-out: percentage of Wi-38 viability
Description: Normal human lung fibroblast Wi-38 cell line was used to detect cytotoxicity of the studied compounds (Table S8). Wi-38 cell line was cultured in DMEM medium-contained 10% fetal bovine serum (FBS), seeded as 5x10^3 cells per well in 96-well cell culture plate and incubated at 37 °C in 5% CO2 incubator. After 24 h for cell attachment, serial concentrations of the synthetic compounds were incubated with Wi-38 cells for 72 h. Cell viability was assayed by MTT method (Mosmann, 1983). Twenty microliters of 5 mg/ml MTT (Sigma, USA) was added to each well and the plate was incubated at 37 °C for 3 h. Then MTT solution was removed, 100 µl DMSO was added and the absorbance of each well was measured with a microplate reader (BMG LabTech, Germany) at 570 nm.

MDA-MB-468 = experiment: NCI anticancer screening, Breast Cancer MDA-MB-468; assay type: cell-based; conditions: Homo sapiens, read-out: % Growth Inhibition (GI %)
Description: as §1

MALME-3M = experiment: NCI anticancer screening, Melanoma MALME-3M; assay type: cell-based; conditions: Homo sapiens, read-out: % Growth Inhibition (GI %)
Description: as §1

SW-620 = experiment: NCI anticancer screening, Colon Cancer SW-620; assay type: cell-based; conditions: Homo sapiens; SW-620, 10 μM; read-out: % Growth Inhibition (GI %)
Description: as §1

SR = experiment: NCI anticancer screening, Leukemia SR; assay type: cell-based; conditions: Homo sapiens, read-out: % Growth Inhibition (GI %)
Description: as §1

NCI-H460 = experiment: NCI anticancer screening, Non-Small Cell Lung Cancer NCI-H460; assay type: cell-based; conditions: Homo sapiens; NCI-H460, 10 μM; read-out: % Growth Inhibition (GI %)
Description: as §1

SF-539 = experiment: NCI anticancer screening, CNS Cancer SF-539; assay type: cell-based; conditions: Homo sapiens; SF-539, 10 μM; read-out: % Growth Inhibition (GI %)
Description: as §1

A549/ATCC = experiment: NCI anticancer screening, Non-Small Cell Lung Cancer A549/ATCC; assay type: cell-based; conditions: Homo sapiens, read-out: % Growth Inhibition (GI %)
Description: as §1

LOX IMVI = experiment: NCI anticancer screening, Melanoma LOX IMVI; assay type: cell-based; conditions: Homo sapiens, read-out: % Growth Inhibition (GI %)
Description: as §1

CAKI-1 = experiment: NCI anticancer screening, Renal Cancer CAKI-1; assay type: cell-based; conditions: Homo sapiens; CAKI-1, 10 μM; read-out: % Growth Inhibition (GI %)
Description: as §1

SK-MEL-5 = experiment: NCI anticancer screening, Melanoma SK-MEL-5; assay type: cell-based; conditions: Homo sapiens; SK-MEL-5, 10 μM; read-out: % Growth Inhibition (GI %)
Description: as §1

M14 = experiment: NCI anticancer screening, Melanoma M14; assay type: cell-based; conditions: Homo sapiens; M14, 10 μM; read-out: % Growth Inhibition (GI %)
Description: as §1

K-562 = experiment: NCI anticancer screening, Leukemia K-562; assay type: cell-based; conditions: Homo sapiens, K562; K-562, 10 μM; read-out: % Growth Inhibition (GI %)
Description: as §1

HOP-62 = experiment: NCI anticancer screening, Non-Small Cell Lung Cancer HOP-62; assay type: cell-based; conditions: Homo sapiens; HOP-62, 10 μM; read-out: % Growth Inhibition (GI %)
Description: as §1

RPMI-8226 = experiment: NCI anticancer screening, Leukemia RPMI-8226; assay type: cell-based; conditions: Homo sapiens; RPMI-8226, 10 μM; read-out: % Growth Inhibition (GI %)
Description: as §1

RXF 393 = experiment: NCI anticancer screening, Renal Cancer RXF 393; assay type: cell-based; conditions: Homo sapiens; RXF 393, 10 μM; read-out: % Growth Inhibition (GI %)
Description: as §1

PC-3 cells = experiment: MTT assay anticancer activity, PC-3; assay type: cell-based; conditions: Homo sapiens, PC-3, 5 µM, mean ± SEM, read-out: growth inhibition percentage of PC-3
Description: MTT method was done as described above.

HCT-15 = experiment: NCI anticancer screening, Colon Cancer HCT-15; assay type: cell-based; conditions: Homo sapiens; HCT-15, 10 μM; read-out: % Growth Inhibition (GI %)
Description: as §1

MDA-MB-435 = experiment: NCI anticancer screening, Melanoma MDA-MB-435; assay type: cell-based; conditions: Homo sapiens; MDA-MB-435, 10 μM; read-out: % Growth Inhibition (GI %)
Description: as §1

NCI-H522 = experiment: NCI anticancer screening, Non-Small Cell Lung Cancer NCI-H522; assay type: cell-based; conditions: Homo sapiens; NCI-H522, 10 μM; read-out: % Growth Inhibition (GI %)
Description: as §1

SN12C = experiment: NCI anticancer screening, Renal Cancer SN12C; assay type: cell-based; conditions: Homo sapiens, read-out: % Growth Inhibition (GI %)
Description: as §1

SNB-75 = experiment: NCI anticancer screening, CNS Cancer SNB-75; assay type: cell-based; conditions: Homo sapiens; SNB-75, 10 μM; read-out: % Growth Inhibition (GI %)
Description: as §1

KM12 = experiment: NCI anticancer screening, Colon Cancer KM12; assay type: cell-based; conditions: Homo sapiens; KM12, 10 μM; read-out: % Growth Inhibition (GI %)
Description: as §1

OVCAR-3 = experiment: NCI anticancer screening, Ovarian Cancer OVCAR-3; assay type: cell-based; conditions: Homo sapiens; OVCAR-3, 10 μM; read-out: % Growth Inhibition (GI %)
Description: as §1

EKVX = experiment: NCI anticancer screening, Non-Small Cell Lung Cancer EKVX; assay type: cell-based; conditions: Homo sapiens, read-out: % Growth Inhibition (GI %)
Description: as §1

MCF7 = experiment: NCI anticancer screening, Breast Cancer MCF7; assay type: cell-based; conditions: Homo sapiens; MCF7, 10 μM; read-out: % Growth Inhibition (GI %)
Description: as §1

HL-60(TB) = experiment: NCI anticancer screening, Leukemia HL-60(TB); assay type: cell-based; conditions: Homo sapiens, read-out: % Growth Inhibition (GI %)
Description: as §1

UO-31 = experiment: NCI anticancer screening, Renal Cancer UO-31; assay type: cell-based; conditions: Homo sapiens; UO-31, 10 μM; read-out: % Growth Inhibition (GI %)
Description: as §1

UACC-257 = experiment: NCI anticancer screening, Melanoma UACC-257; assay type: cell-based; conditions: Homo sapiens; UACC-257, 10 μM; read-out: % Growth Inhibition (GI %)
Description: as §1

MOLT-4 = experiment: NCI anticancer screening, Leukemia MOLT-4; assay type: cell-based; conditions: Homo sapiens; MOLT-4, 10 μM; read-out: % Growth Inhibition (GI %)
Description: as §1

Row | Compound | inhibition at 10 µM (OVCAR-4) [%] | inhibition at 10 µM (CCRF-CEM) [%] | inhibition at 10 µM (HCC-2998) [%] | viability at 72 h, 5 µM [1] [%] | inhibition at 10 µM (MDA-MB-468) [%] | inhibition at 10 µM (MALME-3M) [%] | inhibition at 10 µM (SW-620) [%] | inhibition at 10 µM (SR) [%] | inhibition at 10 µM (NCI-H460) [%] | inhibition at 10 µM (SF-539) [%] | inhibition at 10 µM (A549/ATCC) [%] | inhibition at 10 µM (LOX IMVI) [%] | inhibition at 10 µM (CAKI-1) [%] | inhibition at 10 µM (SK-MEL-5) [%] | inhibition at 10 µM (M14) [%] | inhibition at 10 µM (K-562) [%] | inhibition at 10 µM (HOP-62) [%] | inhibition at 10 µM (RXF 393) [%] | inhibition at 5 µM (PC-3 cells) [%] | inhibition at 10 µM (HCT-15) [%] | further results
1 | O=C(c1nc2ccccc2[nH]1)[C@H]1[C@H](c2ccccc2)C2CSCN2[C@]12C(=O)Nc1ccccc12 (mixture of isomers) [Compound 6a, (3S,6′R)-6'-(1H-benzo [d]imidazole-2-carbonyl)-7′-phenyl-3′,6′,7′,7a′-tetrahydro-1′H-spiro [indoline-3.5′-pyrrolo [1,2-c]thiazol]-2-one] | 108 | 111 | 109 | > 81 | 100 | 101 | 97.8 | 94.2 | 106 | 95.1 | 98.7 | 98.7 | 86 | 92.7 | 107 | 105 | 99.3 | 101 | > 50 | 109 | inhibition at 10 µM (RPMI-8226): 111%; inhibition at 10 µM (MDA-MB-435): 103%; inhibition at 10 µM (NCI-H522): 93.7%; inhibition at 10 µM (SN12C): 106%; inhibition at 10 µM (SNB-75): 79.8%; inhibition at 10 µM (KM12): 105%; inhibition at 10 µM (OVCAR-3): 110%; inhibition at 10 µM (EKVX): 106%; inhibition at 10 µM (MCF7): 98.1%; inhibition at 10 µM (HL-60(TB)): 101%; inhibition at 10 µM (UO-31): 77.2%; inhibition at 10 µM (UACC-257): 97.3%; inhibition at 10 µM (MOLT-4): 100%
2 | Cc1ccc([C@@H]2C3CSCN3[C@]3(C(=O)Nc4ccccc43)[C@H]2C(=O)c2nc3ccccc3[nH]2)cc1 (mixture of isomers) [Compound 6d, (3S,6′R)-6'-(1H-Benzo [d]imidazole-2-carbonyl)-7'-(p-tolyl)-3′,6′,7′,7a′-tetrahydro-1′H-spiro [indoline-3.5′-pyrrolo [1,2-c]thiazol]-2-one] | 62.4 | 89.5 | 94.9 | > 81 | 63.5 | 85.3 | 92 | 102 | 84.5 | 81.9 | 75.4 | 82 | 54.5 | 83.3 | 74.7 | 81.6 | 105 | 57.1 | > 50 | 83.6 | inhibition at 10 µM (RPMI-8226): 80.3%; inhibition at 10 µM (MDA-MB-435): 70.6%; inhibition at 10 µM (NCI-H522): 84.3%; inhibition at 10 µM (SN12C): 85.2%; inhibition at 10 µM (SNB-75): 61.4%; inhibition at 10 µM (KM12): 75.4%; inhibition at 10 µM (OVCAR-3): 89%; inhibition at 10 µM (EKVX): 71.6%; inhibition at 10 µM (MCF7): 70.4%; inhibition at 10 µM (HL-60(TB)): 96.2%; inhibition at 10 µM (UO-31): 54.3%; inhibition at 10 µM (UACC-257): 80.6%; inhibition at 10 µM (MOLT-4): 78.5%
3 | O=C(c1nc2ccccc2[nH]1)[C@H]1[C@H](c2ccc(Cl)cc2)C2CSCN2[C@]12C(=O)Nc1ccccc12 (stereo partly drawn) [Compound 6b, (3S,6′R)-6'-(1H-Benzo [d]imidazole-2-carbonyl)-7'-(4-chlorophenyl)-3′,6′,7′,7a′-tetrahydro-1′H-spiro [indoline-3.5′-pyrrolo [1,2-c]thiazol]-2-one] | 69.5 | 86.3 | 92.1 | 49.6 ± 1.19 | 89.4 | 89.7 | 77 | 65.9 | 74.3 | 84.1 | 81.4 | 76.6 | 68.3 | 91.6 | 79.4 | 82.3 | 91.7 | 71.1 | 51.9 | 76.6 | melting point: 210 to 212 °C; inhibition at 10 µM (RPMI-8226): 63.2%; inhibition at 10 µM (MDA-MB-435): 79.9%; inhibition at 10 µM (NCI-H522): 87.9%; inhibition at 10 µM (SN12C): 80.7%; inhibition at 10 µM (SNB-75): 69.1%; inhibition at 10 µM (KM12): 66.5%; inhibition at 10 µM (OVCAR-3): 86.4%; inhibition at 10 µM (EKVX): 80.7%; inhibition at 10 µM (MCF7): 74.7%; inhibition at 10 µM (HL-60(TB)): 98.3%; inhibition at 10 µM (UO-31): 49%; inhibition at 10 µM (UACC-257): 95.2%; inhibition at 10 µM (MOLT-4): 68.9%
4 | CN(C)c1ccc([C@@H]2C3CSCN3[C@]3(C(=O)Nc4ccccc43)[C@H]2C(=O)c2nc3ccccc3[nH]2)cc1 (stereo partly drawn) [Compound 6k, (3S,6′R)-6'-(1H-Benzo [d]imidazole-2-carbonyl)-7'-(4-(dimethylamino)phenyl)-3′,6′,7′,7a′-tetrahydro-1′H-spiro [indoline-3.5′-pyrrolo [1,2-c]thiazol]-2-one] | 91.5 | 99.9 | 102 | 38.6 ± 3.02 | 99.8 | 94.7 | 100 | 84.3 | 102 | 99.6 | 94.2 | 94.2 | 85.8 | 98.2 | 103 | 92.2 | 95.7 | 99.7 | 41.6 ± 0.729 | 99.1 | melting point: 178 to 180 °C; inhibition at 10 µM (MDA-MB-435): 96.8%; inhibition at 10 µM (NCI-H522): 87.9%; inhibition at 10 µM (SN12C): 94%; inhibition at 10 µM (SNB-75): 88.3%; inhibition at 10 µM (KM12): 95.7%; inhibition at 10 µM (OVCAR-3): 103%; inhibition at 10 µM (EKVX): 91.4%; inhibition at 10 µM (MCF7): 93.6%; inhibition at 10 µM (HL-60(TB)): 99.5%; inhibition at 10 µM (UO-31): 73.4%; inhibition at 10 µM (UACC-257): 90.2%; inhibition at 10 µM (MOLT-4): 85.6%
